From patent US8802597B2, “Herbicidal pyrimidines” (E I du Pont de Nemours and Company, priority 2003, dated 2014)

Legend:
[1] = tested on: duck salad (Heteranthera limosa); experiment: Test C flooded paddy test; type: in vivo; details: Flood, scale 0 to 100
Outline: (§1)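 Visual rating, 0 (no effect) to 100 (complete control), versus untreated plants. Flooded paddy; 2-leaf stage at treatment; greenhouse hold 12–14 d. Dash = no test result.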

rice (Oryza sativa) = experiment: Test C flooded paddy test; type: in vivo; details: Flood, scale 0 to 100
Outline: as §1

[2] = tested on: umbrella sedge (Cyperus difformis); experiment: Test C flooded paddy test; type: in vivo; details: Flood, scale 0 to 100
Outline: as §1

[3] = tested on: barnyardgrass (Echinochloa crus-galli); experiment: Test C flooded paddy test; type: in vivo; details: Flood
Outline: as §1

[4] = tested on: morningglory (Ipomoea coccinea); experiment: Test C pre/postemergence; type: in vivo; details: for Morningglory plant response rating: scale 0 to 100 (0 no effect, 100 complete control)
Outline: (§2)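 Test compounds, formulated in a non-phytotoxic solvent mix with surfactant, were applied to freshly planted seeds and, at the same time, to emerged plants at 1- to 4-leaf stage (2 to 18 cm). After 12 to 14 days in the greenhouse, response was scored visually versus controls, 0 = no effect, 100 = complete control.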

corn (Zea mays) = experiment: Test C pre/postemergence; type: in vivo; details: for Corn plant response rating: scale 0 to 100 (0 no effect, 100 complete control)
Outline: as §2

[5] = tested on: woolly cupgrass (Eriochloa villosa); experiment: Test C pre/postemergence; type: in vivo; details: for Cupgrass, Woolly plant response rating: scale 0 to 100 (0 no effect, 100 complete control)
Outline: as §2

[6] = 500 g ai/ha, scale 0 to 100 (0 no effect, 100 complete control)
[7] = Postemergence, 250 g ai/ha, scale 0 to 100
[8] = Preemergence, 31 g ai/ha, scale 0 to 100, 0 no effect, 100 complete control
[9] = Preemergence, 62 g ai/ha, scale 0 to 100, 0 no effect, 100 complete control
[10] = Preemergence, 125 g ai/ha, scale 0 to 100
[11] = Preemergence, 250 g ai/ha, scale 0 to 100
[12] = Preemergence, 16 g ai/ha, scale 0 to 100, 0 no effect, 100 complete control

Row | Structure (SMILES) | Plant response rating, Ducksalad ([1]; 62 g ai/ha) | Plant response rating, Ducksalad ([1]; 125 g ai/ha) | Plant response rating, Ducksalad ([1]; 250 g ai/ha) | Plant response rating, Ducksalad ([1]; 500 g ai/ha) | Plant response rating, Rice (rice (Oryza sativa); 62 g ai/ha) | Plant response rating, Rice (rice (Oryza sativa); 125 g ai/ha) | Plant response rating, Rice (rice (Oryza sativa); 250 g ai/ha) | Plant response rating, Rice (rice (Oryza sativa); 500 g ai/ha) | Plant response rating, Sedge, Umbrella ([2]; 62 g ai/ha) | Plant response rating, Sedge, Umbrella ([2]; 125 g ai/ha) | Plant response rating, Sedge, Umbrella ([2]; 250 g ai/ha) | Plant response rating, Sedge, Umbrella ([2]; 500 g ai/ha) | Plant response rating, Barnyardgrass ([3]; 62 g ai/ha, scale 0 to 100) | Plant response rating, Barnyardgrass ([3]; 125 g ai/ha, scale 0 to 100) | Plant response rating, Barnyardgrass ([3]; 250 g ai/ha, scale 0 to 100) | Plant response rating, Barnyardgrass [3, 6] | Plant response rating (scale of 0 to 100), Morningglory ([4]; Postemergence, 31 g ai/ha) | Morningglory plant response rating ([4]; Postemergence, 62 g ai/ha) | Morningglory plant response rating ([4]; Postemergence, 125 g ai/ha) | Plant response rating, Morningglory [4, 8] | other results
1 | CC(C)COC(=O)c1nc(C2CC2)nc(N)c1Br [Compound 17] | 0 | 0 | 80 | 80 | 0 | 0 | 45 | 75 | 0 | 0 | 20 | 25 | 0 | 0 | 0 | 50 | 95 | 95 | 100 | 70 | Plant response rating, Morningglory [4, 7]: 100; Plant response rating, Morningglory [4, 9]: 95; Plant response rating, Morningglory [4, 10]: 100; Plant response rating, Morningglory [4, 11]: 100; Plant response rating (scale of 0 to 100), Corn (corn (Zea mays); Postemergence, 31 g ai/ha): 0; Corn plant response rating (corn (Zea mays); Postemergence, 62 g ai/ha): 0; Corn plant response rating (corn (Zea mays); Postemergence, 125 g ai/ha): 0; Plant response rating, Corn (corn (Zea mays); [7]): 20; Plant response rating, Corn (corn (Zea mays); [8]): 0; Plant response rating, Corn (corn (Zea mays); [9]): 20; Plant response rating, Corn (corn (Zea mays); [10]): 35; Plant response rating, Corn (corn (Zea mays); [11]): 75; Plant response rating (scale of 0 to 100), Cupgrass, Woolly ([5]; Postemergence, 31 g ai/ha): 0; Cupgrass, Woolly plant response rating ([5]; Postemergence, 62 g ai/ha): 0; Cupgrass, Woolly plant response rating ([5]; Postemergence, 125 g ai/ha): 0; Plant response rating, Cupgrass, Woolly [5, 7]: 20; Plant response rating, Cupgrass, Woolly [5, 8]: 0; Plant response rating, Cupgrass, Woolly [5, 9]: 0; Plant response rating, Cupgrass, Woolly [5, 10]: 20; Plant response rating, Cupgrass, Woolly [5, 11]: 85
2 | CCOC(=O)c1nc(-c2ccccc2)nc(N)c1Br [Compound 18] |  |  |  |  |  |  |  |  |  |  |  |  |  |  |  |  |  |  |  |  | melting point: 110 to 111 °C
3 | COC(=O)c1nc(C2CC2)nc(N=CN(C)C)c1Br [Compound 19] | 20 | 40 | 60 | 60 | 0 | 0 | 10 | 20 | 20 | 50 | 50 | 50 | 0 | 0 | 0 | 60 | 55 | 80 | 85 | 10 | Plant response rating, Morningglory [4, 12]: 10; Plant response rating, Morningglory [4, 9]: 90; Plant response rating, Morningglory [4, 10]: 90; Plant response rating (scale of 0 to 100), Corn (corn (Zea mays); Postemergence, 16 g ai/ha): 0; Plant response rating (scale of 0 to 100), Corn (corn (Zea mays); Postemergence, 31 g ai/ha): 0; Corn plant response rating (corn (Zea mays); Postemergence, 62 g ai/ha): 0; Corn plant response rating (corn (Zea mays); Postemergence, 125 g ai/ha): 35; Plant response rating, Corn (corn (Zea mays); [12]): 0; Plant response rating, Corn (corn (Zea mays); [8]): 0; Plant response rating, Corn (corn (Zea mays); [9]): 0; Plant response rating, Corn (corn (Zea mays); [10]): 0; Plant response rating (scale of 0 to 100), Cupgrass, Woolly ([5]; Postemergence, 16 g ai/ha): 0; Plant response rating (scale of 0 to 100), Cupgrass, Woolly ([5]; Postemergence, 31 g ai/ha): 25; Cupgrass, Woolly plant response rating ([5]; Postemergence, 62 g ai/ha): 65; Cupgrass, Woolly plant response rating ([5]; Postemergence, 125 g ai/ha): 65; Plant response rating, Cupgrass, Woolly [5, 12]: 0; Plant response rating, Cupgrass, Woolly [5, 8]: 0; Plant response rating, Cupgrass, Woolly [5, 9]: 0; Plant response rating, Cupgrass, Woolly [5, 10]: 0
